This is an account of results in patent publication US20250154198A1, “PEPTIDE INHIBITORS OF INTERLEUKIN-23 RECEPTOR” (Zealand Pharma A/S, priority 2021, published 2025).

*1 amine or outer side, *2 acyl side, *3 side chain or, on linkers, in order; H or OH if unused. Where a SMILES comes first, the peptide text is derived from it. Bridges are numbered along the chain shown (N, C = ends). [ ]: non-standard residue; d: D form. The star is where a group is joined. Phe(3,4-Me2) = Cc1ccc(C[C@H](N)C(=O)O)cc1C; 2Nal = N[C@@H](Cc1ccc2ccccc2c1)C(=O)O; AEF = NCCOc1ccc(C[C@H](N)C(=O)O)cc1; NMeR = CN[C@@H](CCCNC(=N)N)C(=O)O; X1 = O=C(Cc1ccc(CN[*:1])cc1)[*:2]; 3Pal = N[C@@H](Cc1cccnc1)C(=O)O; X22 = NC(=O)C[C@@H](N*)c1cccnc1; d3Pal = N[C@H](Cc1cccnc1)C(=O)O; αMeL = CC(C)C[C@](C)(N)C(=O)O; CH2COCH2 = O=C(C[*:1])C[*:2]; αMeV = CC(C)[C@](C)(N)C(=O)O; 3Amb = NCc1cccc(C(=O)O)c1; Dab = NCC[C@H](N)C(=O)O

One data set has as its target T1, human IL-23R (Homo sapiens, UniProt Q5VWK5).
T1 construct: UniProtKB—Q5VWK5, amino acids 22-629; secretion signal of the plasmid (Promega N1371); expressed in transfected cells
T1 sequence (Q5VWK5 22-629): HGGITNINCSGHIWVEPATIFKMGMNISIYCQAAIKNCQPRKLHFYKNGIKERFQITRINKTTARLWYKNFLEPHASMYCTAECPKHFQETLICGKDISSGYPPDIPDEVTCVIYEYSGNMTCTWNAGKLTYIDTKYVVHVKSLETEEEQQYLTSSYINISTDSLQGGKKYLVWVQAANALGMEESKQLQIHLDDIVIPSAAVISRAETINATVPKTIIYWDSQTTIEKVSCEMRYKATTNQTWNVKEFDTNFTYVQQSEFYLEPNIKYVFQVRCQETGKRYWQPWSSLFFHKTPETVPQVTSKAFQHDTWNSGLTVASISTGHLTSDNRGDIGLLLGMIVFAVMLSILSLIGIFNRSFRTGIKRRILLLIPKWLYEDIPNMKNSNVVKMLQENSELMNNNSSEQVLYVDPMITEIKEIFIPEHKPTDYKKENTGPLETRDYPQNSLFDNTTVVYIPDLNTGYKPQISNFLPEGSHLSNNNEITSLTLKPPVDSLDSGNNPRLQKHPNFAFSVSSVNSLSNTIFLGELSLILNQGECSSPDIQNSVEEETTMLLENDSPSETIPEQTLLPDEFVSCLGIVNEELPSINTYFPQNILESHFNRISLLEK
Kind of data set: Binding assay (NanoBRET displacement of fluorophore-labelled reference compound) for estimating binding affinity to human IL-23R. The settings on record: Table 3-1; read-out: Ki hIL-23R.
Turning to `CC(C)C[C@]1(C)NC(=O)[C@H](Cc2ccc3ccccc3c2)NC(=O)[C@H](Cc2ccc(OCCN)cc2)NC(=O)[C@@H]2CSCC(=O)CSC[C@H](NC(=O)[C@H](CO)NC(=O)c3cccc(c3)CNC(=O)CC[C@@H](C(=O)N[C@@H](CCCNC(=N)N)C(=O)N[C@H](Cc3cccnc3)C(N)=O)NC1=O)C(=O)N[C@@H](Cc1c[nH]c3ccccc13)C(=O)N[C@@H](CCC(N)=O)C(=O)N2` [Compound 150, [(3-Aminomethyl)benzoyl](1c)*SC(2a)WQC(2a)][Y(2-aminoethoxy)][2-Nal][2-Me-Leu]E(1c)R[{d}[3-(3-Pyridyl)-Ala]]-[NH2]] ([3Amb]SCWQC[AEF][2Nal][αMeL]ER[d3Pal]-NH2; linker 3-6 via CH2COCH2; lactam N-10), the Ki was 0.597 nM.
On to `CC(C)C[C@]1(C)NC(=O)[C@H](Cc2ccc3ccccc3c2)NC(=O)[C@H](Cc2ccc(OCCN)cc2)NC(=O)[C@@H]2CSCC(=O)CSC[C@H](NC(=O)[C@H](CO)NC(=O)c3cccc(c3)CNC(=O)CC[C@@H](C(=O)N[C@@H](CCCNC(=N)N)C(=O)N[C@H](CC(N)=O)c3cccnc3)NC1=O)C(=O)N[C@@H](Cc1c[nH]c3ccccc13)C(=O)N[C@@H](CCC(N)=O)C(=O)N2` [Compound 151, [(3-Aminomethyl)benzoyl](1c)*SC(2a)WQC(2a)][Y(2-aminoethoxy)][2-Nal][2-Me-Leu]E(1c)R[3-Amino-3-(3′-pyridyl)propionyl]-[NH2]] ([3Amb]SCWQC[AEF][2Nal][αMeL]ER-X22; linker 3-6 via CH2COCH2; lactam N-10), for which the Ki was 0.672 nM.
`CC[C@H](C)[C@@H]1NC(=O)c2cccc(c2)CNC(=O)CC[C@@H](C(=O)N[C@@H](CCN)C(=O)N[C@@H](Cc2cccnc2)C(N)=O)NC(=O)[C@](C)(C(C)C)NC(=O)[C@H](Cc2ccc3ccccc3c2)NC(=O)[C@H](Cc2ccc(OCCN)cc2)NC(=O)[C@@H]2CCNC(=O)CC[C@H](NC1=O)C(=O)N[C@@H](Cc1c[nH]c3ccccc13)C(=O)N[C@@H](CCC(N)=O)C(=O)N2` [Compound 156, [(3-Aminomethyl)benzoyl](1c)*IE(2c)WQ[Dab](2c)[Y(2-aminoethoxy)][2-Nal][2-Me-Val]E(1c)[Dab][3-(3-Pyridyl)-Ala]-[NH2]] ([3Amb]IEWQ[Dab][AEF][2Nal][αMeV]E[Dab][3Pal]-NH2; lactam 3-6, N-10): the Ki was 0.0157 nM.
Still for that read-out and setting: with `CC[C@H](C)[C@@H]1NC(=O)Cc2ccc(cc2)CNC(=O)CC[C@@H](C(=O)N[C@@H](CCN)C(=O)N[C@@H](Cc2cccnc2)C(N)=O)NC(=O)[C@](C)(C(C)C)NC(=O)[C@H](Cc2ccc3ccccc3c2)NC(=O)[C@H](Cc2ccc(OCCN)cc2)NC(=O)[C@@H]2CCNC(=O)CC[C@H](NC1=O)C(=O)N[C@@H](Cc1c[nH]c3ccccc13)C(=O)N[C@@H](CCC(N)=O)C(=O)N2` [Compound 157, [4-Aminomethyl-phenylacetyl](1c)*IE(2c)WQ[Dab](2c)[Y(2-aminoethoxy)][2-Nal][2-Me-Val]E(1c)[Dab][3-(3-Pyridyl)-Ala]-[NH2]] ([X1]IEWQ[Dab][AEF][2Nal][αMeV]E[Dab][3Pal]-NH2; lactam 3-6, N-10) the figure was 0.0117 nM; with `CC[C@H](C)[C@@H]1NC(=O)Cc2ccc(cc2)CNC(=O)CC[C@@H](C(=O)NCC(=O)N[C@@H](Cc2cccnc2)C(N)=O)NC(=O)[C@](C)(C(C)C)NC(=O)[C@H](Cc2ccc(C)c(C)c2)NC(=O)[C@H](Cc2ccc(OCCN)cc2)NC(=O)[C@@H]2CCNC(=O)CC[C@H](NC1=O)C(=O)N[C@@H](Cc1c[nH]c3ccccc13)C(=O)N[C@@H](CCC(N)=O)C(=O)N2` [Compound 158, [4-Aminomethyl-phenylacetyl](1c)*IE(2c)WQ[Dab](2c)[Y(2-aminoethoxy)][F(3,4-Me)][2-Me-Val]E(1c)G[3-(3-Pyridyl)-Ala]-[NH2]] ([X1]IEWQ[Dab][AEF][Phe(3,4-Me2)][αMeV]EG[3Pal]-NH2; lactam 3-6, N-10), 0.0272 nM.

Tested on in a further data set: not listed separately
The data set is described as follows: Peptide stability in simulated intestinal fluid (SIF). It is filed as in vitro ADME. The settings on record: Table 3-2, porcine pancreatin, pH 6.8, 37° C., 10 μM, 4 h. As for the experimental part: Determination of Peptide Stability in Simulated Gastric Fluid (SGF) and Simulated Intestinal Fluid (SIF)
SGF was prepared by dissolving sodium chloride (0.2 g) in 50 mL of water. A volume of 0.7 mL of 10 M HCl was added to adjust the pH of the solution to 1.2 and the volume made up to 100 mL with water. […] SIF was prepared by dissolving monobasic potassium phosphate (0.68 g) in 50 mL of water and adjusting the pH to 6.8 with 1 M NaOH. The volume was subsequently made up to 100 mL with water. 200 mg porcine pancreatin (P1625, Sigma Aldrich) was gently dissolved into 20 mL preheated (37° C.) solution (10 g/L) immediately prior to the incubation.
The incubation was performed at 37° C. with gentle shaking. […] After the last timepoint, the sampling plate was mixed for 10 min on a shaking table and centrifuged 10 min at 2200 g. 70 μL resulting supernatant was diluted with 150 μL water, mixed and centrifugated before analysis by liquid chromatography high resolution mass spectrometry. […] Percent remaining at each timepoint was calculated relative to timepoint zero based on absolute peak areas.
For `CC(C)C[C@@H]1NC(=O)[C@H](Cc2c[nH]c3ccccc23)NC(=O)[C@H](Cc2c[nH]c3ccccc23)NC(=O)[C@@H]2CSCC(=O)CSC[C@H](NC(=O)[C@H]([C@@H](C)O)NC(=O)[C@@H](NC(=O)CN)CSCC(=O)CSC[C@@H](C(=O)N[C@@H](CO)C(N)=O)NC1=O)C(=O)N[C@@H](Cc1c[nH]c3ccccc13)C(=O)N[C@@H](CCC(=O)O)C(=O)N2` (single isomer, unassigned) [I1 (isomer 3), H-GC(1a)TC(2a)WEC(2a)WWLC(1a)S-[NH2], reference compound], the “SIF (% remaining 4 h)” value is listed as 0%.
Turning to `CC(C)C[C@@H]1NC(=O)[C@H](Cc2c[nH]c3ccccc23)NC(=O)[C@H](Cc2c[nH]c3ccccc23)NC(=O)[C@@H]2CSCC(=O)CSC[C@H](NC(=O)[C@H](CO)NC(=O)[C@@H](NC(=O)[C@@H](N)CC(=O)O)CSCC(=O)CSC[C@@H](C(=O)N[C@@H](CCCNC(=N)N)C(N)=O)NC1=O)C(=O)N[C@@H](Cc1c[nH]c3ccccc13)C(=O)N[C@@H](CCC(N)=O)C(=O)N2` (single isomer, unassigned) [I3 (isomer 3), H-DC(1a)SC(2a)WQC(2a)WWLC(1a)R-[NH2], reference compound], the “SIF (% remaining 4 h)” value was 0%.
Still for that read-out and setting: with `CSCC[C@H](NC(=O)[C@@H]1CSCC(=O)CSC[C@H](NC(=O)[C@@H](N)CCC(=O)O)C(=O)N[C@@H](Cc2c[nH]c3ccccc23)C(=O)N[C@@H](CC(C)C)C(=O)N[C@H]2CSCC(=O)CSC[C@H](NC(=O)[C@H](CC(N)=O)NC(=O)[C@H](CCCNC(=N)N)NC(=O)[C@H](Cc3ccc(O)cc3)NC(=O)[C@H](Cc3ccc(O)cc3)NC2=O)C(=O)N[C@@H](CC(N)=O)C(=O)N1)C(N)=O` (single isomer, unassigned) [I4 (isomer 3), H-EC(4a)WLC(5a)YYRNC(5a)NC(4a)M-[NH2], reference compound] the figure was 0%.

The same data set, now with this note: pig, simulated intestinal fluid (SIF) with porcine pancreatin, Table 3-2, porcine pancreatin, pH 6.8, 37° C., 10 μM, 1 h, read-out: SIF (% remaining 1 h).
As for `CC(C)C[C@]1(C)NC(=O)[C@H](Cc2ccc3ccccc3c2)NC(=O)[C@H](Cc2c[nH]c3ccccc23)NC(=O)[C@@H]2CSCC(=O)CSC[C@H](NC(=O)[C@H](CO)NC(=O)c3cccc(c3)CNC(=O)CC[C@@H](C(=O)N[C@@H](CCCNC(=N)N)C(N)=O)NC1=O)C(=O)N[C@@H](Cc1c[nH]c3ccccc13)C(=O)N[C@@H](CCC(N)=O)C(=O)N2` [Compound 40, [(3-Aminomethyl)benzoyl](1c)*SC(2a)WQC(2a)W[2-Nal][2-Me-Leu]E(1c)R-[NH2]] ([3Amb]SCWQCW[2Nal][αMeL]ER-NH2; linker 3-6 via CH2COCH2; lactam N-10), the fraction remaining at 1 h, 10 μM was 70%.
Consider `CC(=O)N[C@H]1CCCCNC(=O)CC[C@@H](C(=O)N[C@@H](CCCNC(=N)N)C(N)=O)NC(=O)[C@](C)(CC(C)C)NC(=O)[C@H](Cc2ccc3ccccc3c2)NC(=O)[C@H](Cc2ccc(OCCN)cc2)NC(=O)[C@@H]2CSCC(=O)CSC[C@H](NC(=O)[C@H](CO)NC1=O)C(=O)N[C@@H](Cc1c[nH]c3ccccc13)C(=O)N[C@@H](CCC(N)=O)C(=O)N2` [Compound 47, [Ac]-K(1c)SC(2a)WQC(2a)[Y(2-aminoethoxy)][2-Nal][2-Me-Leu]E(1c)R-[NH2]] (Ac-KSCWQC[AEF][2Nal][αMeL]ER-NH2; lactam 1-10; linker 3-6 via CH2COCH2), for which the fraction remaining at 1 h, 10 μM is 2%.

The same data set, now with this note: pig, simulated intestinal fluid (SIF) with porcine pancreatin, Table 3-2, porcine pancreatin, pH 6.8, 37° C., 10 μM, 4 h, read-out: SIF (% remaining 4 h).
For `CC(C)C[C@]1(C)NC(=O)[C@H](Cc2ccc3ccccc3c2)NC(=O)[C@H](Cc2ccc(OCCN)cc2)NC(=O)[C@@H]2CSCC(=O)CSC[C@H](NC(=O)[C@H](CO)NC(=O)c3cccc(c3)CNC(=O)CC[C@@H](C(=O)N(C)[C@@H](CCCNC(=N)N)C(N)=O)NC1=O)C(=O)N[C@@H](Cc1c[nH]c3ccccc13)C(=O)N[C@@H](CCC(N)=O)C(=O)N2` [Compound 43, [(3-Aminomethyl)benzoyl](1c)*SC(2a)WQC(2a)[Y(2-aminoethoxy)][2-Nal][2-Me-Leu]E(1c)[N-Me-Arg]-[NH2]] ([3Amb]SCWQC[AEF][2Nal][αMeL]E[NMeR]-NH2; linker 3-6 via CH2COCH2; lactam N-10), the fraction remaining at 4 h, 10 μM was 33%.
On to `CC(=O)N[C@H]1CCCCNC(=O)CC[C@@H](C(=O)N[C@@H](CCCNC(=N)N)C(N)=O)NC(=O)[C@](C)(CC(C)C)NC(=O)[C@H](Cc2ccc3ccccc3c2)NC(=O)[C@H](Cc2ccc(OCCN)cc2)NC(=O)[C@@H]2CSCC(=O)CSC[C@H](NC(=O)[C@H](CO)NC1=O)C(=O)N[C@@H](Cc1c[nH]c3ccccc13)C(=O)N[C@@H](CCC(N)=O)C(=O)N2` [Compound 47, [Ac]-K(1c)SC(2a)WQC(2a)[Y(2-aminoethoxy)][2-Nal][2-Me-Leu]E(1c)R-[NH2]] (Ac-KSCWQC[AEF][2Nal][αMeL]ER-NH2; lactam 1-10; linker 3-6 via CH2COCH2), for which the fraction remaining at 4 h, 10 μM was 0%.

The term Ki denotes a dissociation constant, usually derived from enzyme kinetics or from competition with a known ligand. Broadly, the amount remaining is the share of the starting amount still present when the sample was taken.
